Measurements from US11052101B2, “Methods for treating cancer using purine analogs by depleting intracellular ATP” (National Guard Health Affairs, priority 2019, dated 2021).
“Also recorded” adds a separate entry of the source.

What was measured:
primary CLL cells [1] = assay: Western blotting / immunoblotting of apoptosis markers (cleaved PARP, caspases); type: cell-based, human; conditions: for cleaved PARP (apoptosis marker), western blot: 3 uM isoproterenol, 24 hr, IBMX positive control; for apoptosis by immunoblotting with apoptotic markers: 30 uM isoproterenol 12 hrs pre-treatment, 10 uM fludarabine 48 hr
Description: Cell death markers for apoptosis (cleaved PARP, cleaved caspase 3 and caspase 9) and autophagy (accumulation of LC3 II) were assessed by western blotting.
[…] Cells were then harvested and examined by immunoblotting with apoptotic markers Cleaved PARP and caspace 9.
Control primary CLL cells ([…]), 10 uM fludarabine (Flud), a combination of both drugs at these concentrations (Flud/Iso), 0.5 uM doxorubicin (Dodo), a combination of 0.5 uM doxorubicin and 30 uM isoproterenol (Dodo/Iso), 0.5 uM mitoxantrone, and a combination of 0.5 uM mitoxantrone and 30 uM isoproterenol and incubated. Cells were than harvested and examined by immunoblotting with the indicated apoptotic markers.

primary CLL cells [2] = assay: CellTiter-Glo ATP-based luminescent assay, intracellular ATP depletion; type: cell-based, human; conditions: for intracellular ATP depletion (luminescence), dose-response: gradient of concentrations, 1 to 20 μM
Description: Primary CLL cells were treated with 3 uM isoproterenol (IC50 determined with Cell-titer Glo® assay) for 24 hr. Cell death markers for apoptosis (cleaved PARP, cleaved caspase 3 and caspase 9) and autophagy (accumulation of LC3 II) were assessed by western blotting. The […] phosphodiesterase inhibitor, IBMX, was used as a positive control because it induces apoptosis in CLL B cells.
CellTiter-Glo® Luminescent Cell Viability Assay is a homogeneous method for determining the number of viable cells in culture based on quantitation of the ATP present, an indicator of metabolically active cells.
ATP depletion in CLL cells was measured by the ATP-based luminescent assay CellTiter-Glo®.
Isoproterenol-induced intercellular ATP depletion was determined by the ATP-based luminescent assay CellTiter-Glo®. The efficiency of isoproterenol in depleting intracellular ATP is represented by the dose response curves shown by FIGS. 3B, 3D and 3F respectively.

normal PBMCs = assay: Induced cell death by propidium iodide staining and flow cytometry; type: cell-based, human; conditions: 3 uM
Description: (§1) To assess viability of the treated cells, cells were stained by propidium iodide and analyzed by flow cytometry.
(§2) The PI/flow cytometry assay assesses cell viability using propidium iodide (PI) which is a membrane impermanent dye that is generally excluded from viable cells. It binds to double stranded DNA by intercalating between base pairs.
Cells from CLL, AML, and from normal donors were treated with 30 μM isoproterenol, 10 μM fludarabine, or a mixture of both drugs at these concentrations as shown by FIGS. 3A, 3C and 3E respectively.

primary CLL cells [3] = assay: Isoproterenol-induced intracellular cAMP accumulation; type: cell-based, human; conditions: IBMX pre-treatment one hour, then 10 uM for 24 hr; CLL cells compared to normal cells
Description: Isoproterenol-induced intracellular cAMP accumulation in normal PBMCs and primary CLL cells was assessed. Cell samples were pre-treated for one hour with phosphodiesterase inhibitor (IBMX) and then with 10 uM isoproterenol for 24 hr.

primary CLL cells [4] = type: cell-based
Description: as §1, §2
Primary CLL cells were isolated from three CLL patients and were exposed 10 uM fludarabine (a purine analog) alone or in combination with 30 uM isoproterenol to assess the effects of the drug(s) on cytotoxicity and growth. Induced cell death was assessed by PI staining and flow cytometry.
After 24 hours treatment, the treated cells were stained with the cell-death marker, propidium iodide and analyzed with flow-cytometry to determine % induced cell death.

p-CREB = assay: Human phosphokinase array; type: cell-based; conditions: 20 μM for 24 hours, compared to untreated
Description: Samples of primary CLL cells were treated in vitro with 20 μM isoproterenol for 24 hours in a human phosphokinase array. In the array each kinase was spotted in duplicate with hybridization signals at the corners serving as controls. Relative levels of protein phosphorylation (normalized intensity for each antibody) were calculated for each untreated and treated sample.

CLL primary cells = assay: MTT (ATP independent) cell viability assay; type: cell-based, human; conditions: gradient of concentrations
From the text: The two assays gave completely different dose-response curves.

For `CC(C)Cn1c(=O)n(C)c(=O)c2[nH]cnc21` [IBMX], the “cleaved PARP (apoptosis marker), western blot” value (primary CLL cells [1]) was “presence of cleaved PARP”.
In the case of `CC(C)NCC(O)c1ccc(O)c(O)c1` (stereo not shown) [isoproterenol, Isoproterenol], the p53 expression (P53) is reported as “doesn't induce any increase in p53 expression”, the “cleaved PARP (apoptosis marker), western blot” value (primary CLL cells [1]) is reported as “no cleaved PARP” and the “apoptosis by immunoblotting with apoptotic markers” value (primary CLL cells [1]) is reported as “Apoptosis was not observed”. For the same molecule, the “intracellular ATP depletion” value (primary CLL cells [2]; 1 μM) was “weak intracellular ATP depletion”, the “depletion of intracellular ATP” value (primary CLL cells [2]; 30 μM for 12 hours) was “more than 80%” and the “sensitivity to isoproterenol induced intracellular ATP depletion” value (primary CLL cells [2]; CLL primary cells compared with other leukemia subtypes and normal PBMCs) was “highest sensitivity”. The IC50 (primary CLL cells [2]; Homo sapiens, CLL cell, primary CLL cells, read-out: IC50 determined with Cell-titer Glo assay) was 3 µM, the “intracellular ATP depletion (luminescence), dose-response” value (primary CLL cells [2]) was “increased intracellular ATP depletion; also recorded: dose-dependent decrease in luminescence” and the “intracellular ATP depletion (luminescence), dose-response” value (primary CLL cells [2]; listed as Iso) was “induces intracellular ATP depletion”. The “sensitivity to isoproterenol (ATP depletion)” value (primary CLL cells [2]; primary CLL cells from a CLL patient at early stage) was “lesser sensitivity”, the “cell death, PI staining / flow cytometry” value (normal PBMCs) was “did not induce any significant cell death” and the “intracellular cAMP accumulation” value (primary CLL cells [3]) was “significantly higher accumulation of cAMP”. The “cell death, PI staining / flow cytometry” value (primary CLL cells [4]; 3 uM) was “did not induce any significant cell death”, the “cell death, ATP-independent assay (solid line FIG. 1C)” value (primary CLL cells [4]; 1 to 20 μM) was “did not induce cell death” and the “phosphorylation of p-CREB” value (p-CREB) was “only significantly up-regulated kinase”. The “cell death by MTT assay” value (CLL primary cells) was “doesn't induce cell death”.
In the case of `Nc1nc(F)nc2c1ncn2[C@@H]1O[C@H](CO)[C@@H](O)[C@@H]1O` [fludarabine, Fludarabine], the “apoptosis by immunoblotting with apoptotic markers” value (primary CLL cells [1]) is reported as “Apoptosis was observed” and the “apoptosis, cleaved PARP (relative pixel density)” value (primary CLL cells [1]; 30 uM isoproterenol, 10 uM fludarabine) is reported as “induced apoptosis”.
